Measurements as given in paper PMC9080097, “Identification of absorbed constituents and evaluation of the pharmacokinetics of main compounds after oral administration of yindanxinnaotong by UPLC-Q-TOF-MS and UPLC-QqQ-MS” (RSC Advances, 2018).

Key:
[1] = Pharmacokinetics study in rats after oral administration of YDXNT (UPLC-QqQ-MS of plasma)
Description: (§1) Six milliliters of 75% methanol was added to two milliliters of prepared plasma and then vortexed for 60 s. The mixture was centrifuged at 4000 rpm for 10 min at 4 °C. The supernatant was transferred to another EP tube and dried using a pressure blowing concentrator. The residue was redissolved with 200 μL of 75% methanol, vortexed for 60 s, and then centrifuged at 13 000 rpm for 10 min. To an aliquot of 200 μL plasma, 120 μL of 0.2 mol L^−1 acetic acid–sodium acetate buffer solution (pH = 4.6), 100 μL of the IS baicalein and 80 μL of 980 U mL^−1 β-glucuronidase and sulfatase was added and then vortexed for 1 min. The mixture was hydrolyzed in a water bath at 37 °C for 30 min, and 600 μL acetone was added to stop the hydrolysis. The sample was cooled, followed by vortexing for 2 min and then centrifugation at 13 000 rpm for 10 min. The supernatant fluid was evaporated to dryness under a flow of nitrogen gas.
(§2) Chromatographic analysis was performed using an Agilent 1290 Series UPLC from Agilent Technologies (Palo Alto, CA, USA), equipped with a quaternary pump an online degasser, auto-sampler and column oven. Chromatographic separation was performed on the Agilent ZORBAX SB-Aq C18 column (100 mm × 2.1 mm, 1.8 μm, Agilent, USA). The analytical column temperature was maintained at 30 °C and eluted with a mobile phase comprising 0.1% formic acid in water (A) and acetonitrile (B) using the following gradient program: 25–90% B from 0 to 1 min, 90% B from 1 to 3.5 min, and 90–25% B from 3.5 to 5 min at a flow rate of 0.3 mL min^−1. The equilibration time was 5 min, and the injection volume of sample and reference constituents was 5 μL.
(§3) Mass spectrometry was performed on the Agilent 6490 triple-quadrupole mass spectrometer (Palo Alto, CA, USA) equipped with an atmospheric pressure chemical ionization (APCI) interface. The mass spectrometer was set in negative ionization mode, with the capillary voltage set at 3500 V. The other parameters in the source were set as follows: desolvation gas flow, 15 L min^−1; source temperature, 290 °C; N2 sheath gas temperature, 350 °C; nebulizer gas (N2) pressure, 50 psi; flow, 12 L min^−1. The mass spectrometer scanned in multiple reaction monitoring (MRM) mode.
(§4) Six male rats were used in the pharmacokinetics study. All the rats were orally administered 2.4 g kg^−1 YXCNT suspended in an aqueous solution of 0.5% carboxymethyl cellulose sodium (QCT: 4.118 mg; KMF: 5.067 mg; ISR: 0.965 mg; GA: 1.416 mg; GB: 0.680 mg; GC: 0.796 mg; BB: 0.326 mg; TSIIA: 0.624 mg; SAB: 3.84 mg). After dosing for 0 min, 5 min, 15 min, 20 min, 30 min, 45 min, 1 h, 1.5 h, 2 h, 3 h, 4 h, 6 h, 8 h, 12 h, and 24 h, blood samples (500 μL) were drawn from the retro-orbital plexus of each mouse and collected in heparinized tubes according to the specific schedule. All the collected blood samples were immediately centrifuged at 13 000 rpm for 10 min. The plasma layer was transferred to clean tubes and stored at −20 °C until analysis. The plasma concentrations of QCT, ISR, KMF, GA, GB, GC, BB, TSIIA, and SAB were expressed as the mean ± standard deviation (SD), and the mean concentration–time curve was plotted. Non-compartmental pharmacokinetic parameters were computed using DAS 2.1.1 software.

[2] = Stability of the analytes in rat plasma QC samples (short-term, autosampler, freeze-thaw, long-term); settings: n = 6
in vivo = settings: male, Sprague-Dawley, rat, po
Description: as §1, §2, §3, §4

[3] = male, Sprague-Dawley, rat, plasma, po, 4.8 g kg^−1 d^−1
[4] = 1 ng mL^−1, -20°C for four weeks
[5] = 1 ng mL^−1, room temperature for 6 h before sample preparation
[6] = 1 ng mL^−1, room temperature for 12 h in the autosampler after sample preparation
[7] = 1 ng mL^−1, three freeze-thaw cycles -20°C to ambient temperature
[8] = 10 ng mL^−1, -20°C for four weeks
[9] = 10 ng mL^−1, room temperature for 6 h before sample preparation
[10] = 10 ng mL^−1, room temperature for 12 h in the autosampler after sample preparation
[11] = 10 ng mL^−1, three freeze-thaw cycles -20°C to ambient temperature
[12] = 100 ng mL^−1, -20°C for four weeks
[13] = 100 ng mL^−1, room temperature for 6 h before sample preparation
[14] = 100 ng mL^−1, room temperature for 12 h in the autosampler after sample preparation
[15] = 100 ng mL^−1, three freeze-thaw cycles -20°C to ambient temperature
[16] = rat plasma, oral YDXNT 4.8 g kg^−1 d^−1 (2.4 g kg^−1 in source), n = 6, mean ± SD
[17] = rat plasma, oral YDXNT 4.8 g kg^−1 d^−1 (2.4 g kg^−1 in source), n = 6, non-compartmental

Molecule	AUC(0-inf) [1, 3] [ng·h/mL]	AUC(0-t) [1, 3] [ng·h/mL]	Cmax [1, 3] [ng/mL]	MRT [1, 3] [h]	Tmax [1, 3] [h]	half-life [1, 3] [h]	Long-term stability Accuracy [2, 4] [%]	Short-term stability Accuracy [2, 5] [%]	Autosampler stability Accuracy [2, 6] [%]	Freeze–thaw strability (three cycles) Accuracy [2, 7] [%]	Long-term stability Accuracy [2, 8] [%]	Short-term stability Accuracy [2, 9] [%]	Autosampler stability Accuracy [2, 10] [%]	Freeze–thaw strability (three cycles) Accuracy [2, 11] [%]	Long-term stability Accuracy [2, 12] [%]	Short-term stability Accuracy [2, 13] [%]	Autosampler stability Accuracy [2, 14] [%]	Freeze–thaw strability (three cycles) Accuracy [2, 15] [%]	further results
CC(C)(C)[C@]1(O)CC2OC(=O)CC23C(=O)OC2OC(=O)[C@H](O)C231 (stereo partly drawn) [BB, bilobalide]	384 ± 51.5	366 ± 48.4	48.7 ± 12.3	9.62 ± 3.18	0.75 ± 0.5	5.55 ± 2.67	99.15 ± 5.73	98.10 ± 7.83	103.47 ± 6.75	99.85 ± 6.27	96.38 ± 8.63	99.78 ± 5.25	95.29 ± 2.77	98.88 ± 3.59	95.54 ± 7.76	94.05 ± 2.61	97.44 ± 3.13	95.47 ± 4.92	–
C[C@@H]1C(=O)O[C@H]2C[C@@]34[C@H]5C[C@@H](C(C)(C)C)[C@]36[C@@H](OC(=O)[C@@H]6O)O[C@@]4(C(=O)O5)[C@]21O [GA, ginkgolide A]	–	–	–	–	–	–	98.92 ± 5.81	100.59 ± 6.08	97.28 ± 2.19	102.76 ± 5.39	95.48 ± 10.28	102.54 ± 7.33	98.33 ± 3.46	98.42 ± 2.84	92.19 ± 8.81	98.31 ± 5.29	96.83 ± 8.30	95.44 ± 7.51	AUC(0-inf) (in vivo): 545 ± 78.9 ng·h/mL; AUC(0-t) (in vivo): 491 ± 72.6 ng·h/mL; Cmax (in vivo): 76.3 ± 18.2 ng/mL; MRT (in vivo): 9.42 ± 1.77 h; Tmax (in vivo): 0.75 ± 0.29 h; half-life (in vivo): 7.52 ± 2.08 h
COc1cc(-c2oc3cc(O)cc(O)c3c(=O)c2O)ccc1O [ISR, isorhamnetin]	–	–	–	–	–	–	98.35 ± 6.27	99.24 ± 6.68	98.06 ± 8.29	103.15 ± 5.43	96.44 ± 6.33	96.28 ± 5.89	97.72 ± 3.83	94.52 ± 3.68	95.76 ± 8.18	102.18 ± 4.95	98.34 ± 7.61	99.63 ± 3.38	AUC(0-inf) (in vivo): 384 ± 55.1 ng·h/mL; AUC(0-t) (in vivo): 319 ± 49.3 ng·h/mL; Cmax (in vivo): 27.9 ± 8.38 ng/mL; MRT (in vivo): 13.9 ± 3.71 h; Tmax (in vivo): 0.33 ± 0.14 h; half-life (in vivo): 8.19 ± 2.42 h
O=c1c(O)c(-c2ccc(O)cc2)oc2cc(O)cc(O)c12 [KMF, kaempferol]	539 ± 82.3	401 ± 84.4	49.9 ± 13.8	17.1 ± 4.42	0.5 ± 0.23	8.19 ± 2.42	98.70 ± 9.35	96.50 ± 6.47	99.17 ± 4.39	101.23 ± 8.76	100.48 ± 7.44	101.22 ± 2.09	102.65 ± 5.28	103.21 ± 4.14	95.21 ± 5.96	97.10 ± 3.69	95.96 ± 3.11	94.24 ± 6.63	–
O=c1c(O)c(-c2ccc(O)c(O)c2)oc2cc(O)cc(O)c12 [QCT, quercetin]	412 ± 82.7	410 ± 73.2	45 ± 11.3	8.44 ± 1.24	0.33 ± 0.11	2.69 ± 0.65	97.57 ± 3.42	100.23 ± 1.69	103.73 ± 5.52	98.27 ± 6.33	96.41 ± 5.79	97.45 ± 4.23	99.34 ± 6.73	100.31 ± 4.27	93.17 ± 7.35	95.97 ± 2.36	94.22 ± 5.14	98.35 ± 7.84	–
Cc1coc2c1C(=O)C(=O)c1c-2ccc2c1CCCC2(C)C [TSIIA, tanshinone IIA]	183 ± 77.4	167 ± 69.5	38.3 ± 17.4	9.89 ± 1.5	0.25 ± 0.23	7.04 ± 2.18	101.23 ± 8.76	96.50 ± 6.47	102.65 ± 5.28	100.31 ± 4.27	103.21 ± 4.14	101.22 ± 2.09	95.96 ± 3.11	101.22 ± 2.09	94.24 ± 6.63	95.96 ± 3.11	99.15 ± 5.73	95.97 ± 2.36	–
salvianolic acid B [SAB]	–	–	–	–	–	–	–	–	–	–	–	–	–	–	–	–	–	–	C max [1, 16]: 32.00 ± 15.43 ng/mL; T max [1, 16]: 0.75 ± 0.18 h; AUC0–INF [1, 17]: 135.72 ± 64.24; MRT [1, 17]: 9.46 ± 2.37 h; T 1/2 [1, 17]: 12.17 ± 3.33 h; AUC0–t ([1]; rat plasma, oral YDXNT 4.8 g kg^−1 d^−1 (2.4 g kg^−1 in source), n = 6, sampling to 24 h, non-compartmental): 118.17 ± 58.46; Long-term stability Accuracy ([2]; 5 ng mL^−1, -20°C for four weeks): 102.76 ± 5.39%; Short-term stability Accuracy ([2]; 5 ng mL^−1, room temperature for 6 h before sample preparation): 97.28 ± 2.19%; Autosampler stability Accuracy ([2]; 5 ng mL^−1, room temperature for 12 h in the autosampler after sample preparation): 96.38 ± 8.63%; Freeze–thaw strability (three cycles) Accuracy ([2]; 5 ng mL^−1, three freeze-thaw cycles -20°C to ambient temperature): 99.24 ± 6.68%; Long-term stability Accuracy ([2]; 50 ng mL^−1, -20°C for four weeks): 95.72 ± 6.59%; Short-term stability Accuracy ([2]; 50 ng mL^−1, room temperature for 6 h before sample preparation): 96.44 ± 6.33%; Autosampler stability Accuracy ([2]; 50 ng mL^−1, room temperature for 12 h in the autosampler after sample preparation): 96.41 ± 5.79%; Freeze–thaw strability (three cycles) Accuracy ([2]; 50 ng mL^−1, three freeze-thaw cycles -20°C to ambient temperature): 98.88 ± 3.59%; Long-term stability Accuracy ([2]; 500 ng mL^−1, -20°C for four weeks): 97.38 ± 4.39%; Short-term stability Accuracy ([2]; 500 ng mL^−1, room temperature for 6 h before sample preparation): 95.76 ± 8.18%; Autosampler stability Accuracy ([2]; 500 ng mL^−1, room temperature for 12 h in the autosampler after sample preparation): 93.17 ± 7.35%; Freeze–thaw strability (three cycles) Accuracy ([2]; 500 ng mL^−1, three freeze-thaw cycles -20°C to ambient temperature): 95.47 ± 4.92%
